Values of other authors in article PMC10046020, “In Silico Screening and Optimization of Cell-Penetrating Peptides Using Deep Learning Methods” (Biomolecules, 2023).
Where two headings read alike, the source gives them in different places.

Conditions: cited from earlier work
Excerpt: Supplement biomolecules-13-00522-s001.zip/biomolecules-2162660_Supplementary Spreadsheets S1 Test Set.csv, table | column: class || Supplement biomolecules-13-00522-s001.zip/biomolecules-2162660_Supplementary Spreadsheets S2 Train Set.csv, table | column: class

[1] = Spreadsheet S1: 150 CPP and 150 non-CPP peptides collected from CellPPD, MLCPP, CPPsite 2.0, Lifetein and other publications

| Substance | class (CPP / Non-CPP), Test Set [1] | class (CPP / Non-CPP), Test Set |
| --- | --- | --- |
| AAVALLPAVLLALLAKNNLKECGLY | CPP | – |
| ACRDRFRRCPADRRLCG | CPP | – |
| ACRGRGRGCGRGRGRCG | CPP | – |
| ACRGRGRGCGSGSGSCG | CPP | – |
| ACRGRGRRCGSGRRSCG | CPP | – |
| ACSGRGSGCGSGRGSCG | CPP | – |
| ACSGSGSGCGSGSGSCGRRRRRRRR | CPP | – |
| ADCKNFFWKTFTSC | Non-CPP | – |
| AEQNPIYWARYADWLFTTPLLLLDLALLVDADEGT | CPP | – |
| AGCKNFFWKMFTSC | Non-CPP | – |
| AGYLLGHINLHHLAHLHHIL | CPP | – |
| AGYLLGKTNLKALAALAKKIL | CPP | – |
| AHALCLTEFQIKSNRRMKWKKEN | Non-CPP | – |
| AHALCLTERQIKSNRRMKWKKEN | Non-CPP | – |
| AITFYPFAPNQITCIHE | Non-CPP | – |
| AKRGARSTA | CPP | – |
| APKRKSGVSK | CPP | – |
| APVTGAHMAYVDYWVPCQFTECSGEYVTEEYRKA | Non-CPP | – |
| ARFSNPGVWSKVAADIFNMALDTALA | Non-CPP | – |
| ARRCSGSGSGCGSGSGSCGRR | CPP | – |
| ARRRCSDRFRNCPADEALCGRRR | CPP | – |
| ARRRRCSDRFRNCPADEALCGRRRR | CPP | – |
| ARRRRCSGSGSGCGSGSGSCGRRRR | CPP | – |
| AVNANFGWQDKRFSTFG | Non-CPP | – |

| Substance | class (CPP / Non-CPP), Test Set [1] | class (CPP / Non-CPP), Test Set |
| --- | --- | --- |
| CAETCIYIPCFTEAVGCKCKDKVCYKN | Non-CPP | – |
| CARSKNKDC | – | CPP |
| CCTGRKKRRQRRR | CPP | – |
| CDAGRKQKC | – | CPP |
| CGGGRRRRRRRRRLLLL | CPP | – |
| CKYGRKKRRQRRR | CPP | – |
| CLGSGEQCVRDTSCCSMSCTNNICF | Non-CPP | – |
| CPLDQFECGGDEPG | Non-CPP | – |
| CREKAKKLFKKILKKL | CPP | – |
| CRGDKGDPC | – | CPP |
| CRKKRRQRRR | CPP | – |
| CSKSSDYQC | – | CPP |
| CVCVKTTSLVRPRHI | Non-CPP | – |
| CVKLNDGHFMPVLGFGTYAPPEVPRSKALEVTKLA | Non-CPP | – |
| CYFQNCPRG | – | Non-CPP |
| CYFQNCPVG | – | Non-CPP |
| DAATARGRGRSAASRPTERPRAPARSASRPRRPVD | CPP | – |
| DFDMLRCMLGRVYRPCWQV | Non-CPP | – |
| DFDMLRCMLGRVYYPCWQV | Non-CPP | – |
| DKLGVWFIWANNASVFHAYHLKC | Non-CPP | – |
| DVVRVWFCNRRQKGKR | CPP | – |
| DWLKAFYDKVAEKLKEAF | CPP | – |
| EGGGPQWAVGHFM | – | Non-CPP |
| EILLPNNYNAYESYKYPGMFIALSK | Non-CPP | – |

| Substance | class (CPP / Non-CPP), Test Set [1] | class (CPP / Non-CPP), Test Set |
| --- | --- | --- |
| EILLPNSYNAYESYKYPGMFIALSK | Non-CPP | – |
| ELFSPIAIAVLGSCVL | Non-CPP | – |
| ELVVLGKLYGRKKRRQRRR | CPP | – |
| EMCILIDENDNKIGADTKKNCHLNENIDKGLLHRA | Non-CPP | – |
| ENGPDQWSKLYP | – | Non-CPP |
| FDPYALSEHDEERPQNVQSKSRTAELQAEIDDTVGI | Non-CPP | – |
| FFLIPKGRRRRRRRRR | CPP | – |
| FGCKNFFWKTFTSC | Non-CPP | – |
| FHFHFRFR | – | CPP |
| FITKALGISYGRKKRRQS | Non-CPP | – |
| FITKALGISYGRKWRRQC | Non-CPP | – |
| FKCRRWQWRMKKLG | CPP | – |
| FKCRRWQWRMKKLGAPSITCVRRAF | CPP | – |
| FKCRRWQWRMKKLGKRSKNKGFKEQAKSLLKWILD | CPP | – |
| FKMHEN | – | Non-CPP |
| FLAGLIGGLAKML | Non-CPP | – |
| FLGALFKVASKVLPSVFCAITKKC | Non-CPP | – |
| FLGVVFKLASKVFPAVFGKV | Non-CPP | – |
| FLPFLAKILTGVL | – | Non-CPP |
| FLPLFLPKIICVITKKC | Non-CPP | – |
| FLPLLAGVVANFLPQIICKIARKC | Non-CPP | – |
| FLPVLAGIAAKVVPALFCKITKKC | Non-CPP | – |
| FLSFLLGPLIDLISKG | Non-CPP | – |
| FQAYPCITAYKVMYID | Non-CPP | – |
